Source: US5340822A, “Polycyclic amine compounds and their enantiomers, their method of preparation and pharmaceutical compositions in which they are present” (Elf Sanofi, priority 1991, dated 1994)
Where a name gives a salt, the structure may show the parent alone. One block for each molecule: values may come before it.

Legend:
[1] = biological target: T1, binding of neurokinin A (NKA) (Rattus norvegicus, UniProt P16610); experiment: antagonism of the binding of NKA on rat duodenal membranes; details: read-out: Ki, antagonizes the binding of neurokinin A
T1 construct: tests performed on rat duodenal membranes; from tissue; host or cells: rat duodenal membranes
T1 sequence (P16610 1-390): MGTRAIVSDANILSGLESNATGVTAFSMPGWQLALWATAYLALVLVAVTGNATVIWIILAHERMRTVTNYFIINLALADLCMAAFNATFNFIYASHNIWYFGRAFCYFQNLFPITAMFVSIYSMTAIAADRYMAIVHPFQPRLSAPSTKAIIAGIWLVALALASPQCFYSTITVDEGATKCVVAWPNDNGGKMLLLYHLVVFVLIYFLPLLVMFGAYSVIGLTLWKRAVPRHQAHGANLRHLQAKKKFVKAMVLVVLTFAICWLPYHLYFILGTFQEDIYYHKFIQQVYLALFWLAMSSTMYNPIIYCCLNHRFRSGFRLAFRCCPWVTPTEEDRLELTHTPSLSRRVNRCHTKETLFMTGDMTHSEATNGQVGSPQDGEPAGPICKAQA

NK1 receptor = details: D. Regoli, 1988 and 1989; cited from earlier work
binding of eledoisin = biological target: T2, binding of eledoisin (Rattus norvegicus, UniProt P16177); experiment: antagonism of the binding of eledoisin on rat membranes; details: read-out: Ki, antagonizes the binding of eledoisin
T2 construct: tests performed on rat membranes; from tissue
T2 sequence (P16177 1-452): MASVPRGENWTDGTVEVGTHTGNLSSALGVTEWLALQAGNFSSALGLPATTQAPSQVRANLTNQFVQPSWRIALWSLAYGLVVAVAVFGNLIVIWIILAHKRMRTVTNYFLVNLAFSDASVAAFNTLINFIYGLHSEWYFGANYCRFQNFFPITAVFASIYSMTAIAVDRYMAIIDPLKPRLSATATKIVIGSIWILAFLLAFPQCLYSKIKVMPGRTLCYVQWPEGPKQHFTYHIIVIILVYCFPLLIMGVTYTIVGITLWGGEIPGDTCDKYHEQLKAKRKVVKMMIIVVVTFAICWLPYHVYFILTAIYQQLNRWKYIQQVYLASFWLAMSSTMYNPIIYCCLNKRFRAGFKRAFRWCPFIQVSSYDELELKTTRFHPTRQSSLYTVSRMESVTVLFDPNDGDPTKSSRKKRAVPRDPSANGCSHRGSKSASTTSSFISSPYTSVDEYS
Text: Foster et al., Br. J. Pharmacol., 1988, 94, 602-608.
Eledoisin is a peptide of batrachian origin which is equivalent to neurokinin B.

binding of substance P = experiment: antagonism of the binding of substance P on rat cortical membranes and IM9 lymphoblasts; details: rat cortical membranes and/or IM9 lymphoblasts (not said which); read-out: Ki, antagonizes the binding of substance P

Molecule: O=C(c1ccccc1)N1CCC(CCN2CCC(O)(c3ccccc3)CC2)(c2ccc(Cl)c(Cl)c2)C1 (stereo not shown) [Compound 7]
Ki [1]: 1.3 nM

Molecule: [Sar^9,Met-(O2)^11 ]SP
selectivity for the NK1 receptor (NK1 receptor): thought to have a selectivity for the NK1

Molecule: O=C1CCC(CCN2CCC(O)(c3ccccc3)CC2)(c2ccc(Cl)c(Cl)c2)CN1Cc1ccccc1 (stereo not shown) [Compound 3]
Ki (binding of eledoisin): 200 nM

Ki (binding of substance P): 8.3 nM
Molecule: O=C(Cc1ccccc1)N1CCCC(CCN2CCC(Cc3ccccc3)CC2)(c2ccc(Cl)c(Cl)c2)C1 (stereo not shown) [Compound 2, 3-[2-(4-Benzylpiperidin-1-yl)ethyl]-3-(3,4-dichlorophenyl)-1-phenylacetylpiperidine hydrochloride]
